Measurements from ChEMBL document CHEMBL1208784, “Refinement of the pharmacophore of 3,4-dihydroquinazoline-2(1H)-thiones for their anti-melanogenesis activity” (Bioorg Med Chem Lett, 2010).

How the values were obtained:
B16 [1] = test: Antimelanogenic activity in mouse B16 cells assessed as inhibition of alpha-MSH-induced melanogenesis at 10 uM; format: functional
B16 [2] = test: Antimelanogenic activity in mouse B16 cells assessed as inhibition of alpha-MSH-induced melanogenesis; format: functional, cell-based
Tyrosinase = molecular target: T1, Tyrosinase (Mus musculus, UniProt P11344); test: Inhibition of tyrosinase in alpha-MSH-induced mouse B16 cells; format: cell-based
T1 sequence (P11344 whole entry): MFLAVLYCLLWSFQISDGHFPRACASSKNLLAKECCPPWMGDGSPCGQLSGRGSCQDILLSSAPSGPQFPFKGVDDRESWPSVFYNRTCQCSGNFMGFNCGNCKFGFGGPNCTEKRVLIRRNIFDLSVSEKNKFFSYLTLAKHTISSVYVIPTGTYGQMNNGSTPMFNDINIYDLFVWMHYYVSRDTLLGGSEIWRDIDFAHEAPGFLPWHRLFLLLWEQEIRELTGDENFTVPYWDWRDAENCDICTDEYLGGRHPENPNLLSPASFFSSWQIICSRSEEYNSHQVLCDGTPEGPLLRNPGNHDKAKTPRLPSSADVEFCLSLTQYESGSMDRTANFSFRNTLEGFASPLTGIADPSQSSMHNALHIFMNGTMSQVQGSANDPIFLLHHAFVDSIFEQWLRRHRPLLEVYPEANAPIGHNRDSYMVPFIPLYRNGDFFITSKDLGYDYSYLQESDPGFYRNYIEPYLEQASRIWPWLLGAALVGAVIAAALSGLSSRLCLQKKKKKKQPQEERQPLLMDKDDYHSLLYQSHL

B16 [3] = test: Antimelanogenic activity in mouse B16 cells assessed as inhibition of alpha-MSH-induced melanogenesis at 100 uM; format: functional

| IC50 (B16 [2]) [µM] | Compound | inhibition at 10 µM (B16 [1]) [%] | IC50 (Tyrosinase) [µM] | inhibition at 100 µM (B16 [3]) [%] |
| --- | --- | --- | --- | --- |
| > 10 | Cc1ccc2c(c1)CN(CC(C)C)C(=O)N2 | 11 |  |  |
| > 10 | Cc1ccc2c(c1)CN(CCC(C)C)C(=O)N2 | 15 |  |  |
| 1.2 | CCCCCCN1Cc2cc(C)ccc2NC1=S | > 100 |  |  |
| > 10 | CCCCCCN1Cc2cc(C)ccc2NC1=O | 12 |  |  |
| > 10 | Cc1ccc2c(c1)CN(CC1CCCCC1)C(=O)N2 | 18 |  |  |
| 1.4 | CCCCCCCN1Cc2cc(C)ccc2NC1=S | > 100 |  |  |
| 3 | Cc1ccc2c(c1)CN(CCC(C)C)C(=S)N2 | > 100 |  |  |
| > 10 | CCCCCCCN1Cc2cc(C)ccc2NC1=O | 19 |  |  |
| > 10 | Cc1ccc2c(c1)CN(C(C)C)C(=O)N2 | 13 |  |  |

More lines, now with the values behind:

| Compound | IC50 (B16 [2]) [µM] | inhibition at 10 µM (B16 [1]) [%] | IC50 (Tyrosinase) [µM] | inhibition at 100 µM (B16 [3]) [%] |
| --- | --- | --- | --- | --- |
| Cc1ccc2c(c1)CN(CC1CCCCC1)C(=S)N2 | 1.6 | > 100 |  |  |
| Cc1ccc2c(c1)CN(CC(C)C)C(=S)N2 | 1.9 | > 100 |  |  |
| NC(=S)Nc1ccccc1 [PHENYLTHIOUREA] |  |  | 1.8 |  |
| S=C1NCc2ccccc2N1 | 15.8 | 36 |  |  |
| O=C1NCc2ccccc2N1 | > 10 | 11 |  |  |
| S=C1Nc2ccc(Cl)cc2CN1CC1CCCCC1 | 1.2 | > 100 |  |  |
| Cc1ccc2c(c1)CN(C(C)C)C(=S)N2 | 1.9 | > 100 |  |  |
| Cc1ccc2c(c1)CN(C(C)C)C(=S)N2C | 19 | 10 |  |  |
| NC(=O)Nc1ccccc1 |  |  |  | 0 |
| O=C1Nc2ccc(Cl)cc2CN1CC1CCCCC1 | > 10 | 10 |  |  |
| Cc1ccc2c(c1)CN(CC(C)C)C(=S)N2C | 17.8 | 18 |  |  |
